From paper PMC6648837 (ACS Omega, 2019)
Read-outs that look alike come from different tables or passages of the source.

What was measured:
[1] = target: CYP3A4 (Homo sapiens, UniProt P08684); experiment: CYP3A4 inhibition assay; format: biochemical; details: for increased CYP3A4 inhibition relative to the methyl ester 4a (factor): esters of primary alcohol 2; for CYP3A4 inhibition compared in words: versus dillapiol (14, 15: versus 13); for times more potent than dillapiol as CYP3A4 inhibitor: dillapiol = 1
[2] = test system: Colorado potato beetle; details: in vivo bioassays; cited from earlier work

Sequence of CYP3A4 (P08684 whole entry): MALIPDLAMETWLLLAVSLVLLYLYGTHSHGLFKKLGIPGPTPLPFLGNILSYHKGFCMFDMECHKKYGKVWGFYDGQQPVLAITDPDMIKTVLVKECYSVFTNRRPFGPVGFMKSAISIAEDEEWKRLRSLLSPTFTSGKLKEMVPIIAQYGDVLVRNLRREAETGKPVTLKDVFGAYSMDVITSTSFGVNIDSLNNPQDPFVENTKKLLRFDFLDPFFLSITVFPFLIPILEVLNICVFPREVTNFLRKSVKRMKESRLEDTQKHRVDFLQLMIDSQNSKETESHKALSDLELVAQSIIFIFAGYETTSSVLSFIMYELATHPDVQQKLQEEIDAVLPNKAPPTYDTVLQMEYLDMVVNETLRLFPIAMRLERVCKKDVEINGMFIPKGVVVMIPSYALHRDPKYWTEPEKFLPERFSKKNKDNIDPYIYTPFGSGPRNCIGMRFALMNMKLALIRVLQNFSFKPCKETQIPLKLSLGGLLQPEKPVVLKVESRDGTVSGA

O=C(OCCCc1cc2c(cc1OCc1ccccc1)OCO2)C(c1ccccc1)c1ccccc1 [Compound 11g]
IC50 [1]: 1 µM

COc1c(CCCOC(=O)C(c2ccccc2)c2ccccc2)cc2c(c1OC)OCO2 [Compound 4n]
increased CYP3A4 inhibition by a factor, benzhydryl versus benzyl group (4m) [1]: 5

C=CCc1cc2c(cc1OC)OCO2 [Compound 8b]
insecticide synergism of pyrethrum [2]: increased in vivo synergism relative to dillapiol

COc1c(CC(C)OC(C)=O)cc2c(c1OC)OCO2 (centres unmarked) [Compound 5a]
IC50 [1]: > 20 µM

CCCCCC(=O)OCCCc1cc2c(c(OC)c1OC)OCO2 [Compound 4d]
increased CYP3A4 inhibition relative to the methyl ester 4a (factor) [1]: 2.8
IC50 ([1]; human, recombinant CYP3A4 (BD Gentest), probe dibenzyl fluorescein (DBF)): 3.3 µM

COc1cc2c(cc1CCCOC(=O)C=Cc1ccccc1)OCO2 [Compound 11d]
IC50 [1]: 17.2 µM

COc1c(CCCOC(=O)c2ccccc2)cc2c(c1OC)OCO2 [Compound 4g]
insecticide synergism of pyrethrum [2]: no insecticide synergism

COc1c(CCCOC(C)=O)cc2c(c1OC)OCO2 [Compound 4a]
insecticide synergism of pyrethrum [2]: no insecticide synergism
CYP3A4 inhibition compared in words [1]: essentially the same inhibitory effect as dillapiol

COc1c(CC(C)O)cc2c(c1OC)OCO2 (centres unmarked) [Compound 3]
CYP3A4 inhibition compared in words [1]: less potent than dillapiol

COc1c(CCCOC(=O)c2ccccc2Cl)cc2c(c1OC)OCO2 [Compound 4h]
IC50 [1]: 1.3 µM

COc1c(CCCOC(=O)c2ccc(Cl)cc2Cl)cc2c(c1OC)OCO2 [Compound 4j]
increased CYP3A4 inhibition relative to the methyl ester 4a (factor) [1]: greater than 6

C=CCc1cc2c(cc1OCc1ccccc1OC)OCO2 [Compound 8g]
times more potent than dillapiol as CYP3A4 inhibitor [1]: 0.9 times

O=C(C=Cc1ccccc1)OCCCc1cc2c(cc1OCc1ccccc1)OCO2 [Compound 11e]
IC50 [1]: 4.7 µM

COc1c(CCCOC(=O)c2ccc(Cl)cc2)cc2c(c1OC)OCO2 [Compound 4i]
IC50 [1]: 1.6 µM
increased CYP3A4 inhibition relative to the methyl ester 4a (factor) [1]: greater than 6

COc1c(CCCOC(=O)C=Cc2ccccc2)cc2c(c1OC)OCO2 [Compound 4l]
IC50 [1]: 2.4 µM

COc1c(CC(C)OC(=O)c2ccccc2)cc2c(c1OC)OCO2 (centres unmarked) [Compound 5g]
IC50 [1]: 3.5 µM

C=CCc1cc2c(cc1OCc1ccccc1Cl)OCO2 [Compound 8f]
times more potent than dillapiol as CYP3A4 inhibitor [1]: 86 times
